The test system of data set [1] is collagen-induced arthritis. The data set can be described thus: rat collagen-induced arthritis model. Type of data set: in vivo.
For a further data set, the system named is immune thrombocytopenia. The data set can be described thus: mouse model of immune thrombocytopenia. Type of data set: in vivo. As to conditions: mouse ITP model.
Another data set has as its system Pemphigus foliaceus. The data set can be described thus: treatment of dogs with newly diagnosed, naturally occurring Pemphigus foliaceus. Type of data set: in vivo.
The conditions of data set [2]: humans, oral administration; cited from earlier work.

Structures are written as SMILES. “Also recorded” adds a separate entry of the source.

For the molecule `CC(C)(C=C(C#N)C(=O)N1CCC[C@@H](n2nc(-c3ccc(Oc4ccccc4)cc3F)c3c(N)ncnc32)C1)N1CCN(C2COC2)CC1` (mixture of isomers) [rilzabrutinib, (R)-2-[3-[4-amino-3-(2-fluoro-4-phenoxy-phenyl)pyrazolo[3,4-d]pyrimidin-1-yl]piperidine-1-carbonyl]-4-methyl-4-[4-(oxetan-3-yl)piperazin-1-yl]pent-2-enenitrile], the disease reversal entry in data set [1] is recorded as “full disease reversal”. The “platelet loss (consumption)” value in the data set on immune thrombocytopenia is listed as “reduction in platelet loss; also recorded: significant dose dependent reduction of platelet-loss”. Further, the “cases with disease safely controlled without the need for corticosteroid” value in the data set on Pemphigus foliaceus is listed as 4 of 4. In addition, the pharmacokinetics variability result in data set [2] is “variable pharmacokinetics”.

The values above are taken from patent US20260364079A1 (Principia Biopharma Inc., priority 2022, published 2026).
